Measured values: patent publication US20160367497A1, “METHODS AND COMPOSITIONS FOR TREATING NEUROPATHIES” (Washington University, priority 2007, published 2016)

Legend:
[1] = tested on: AMPK; test: AMPK and ACC phosphorylation in DRG sensory neurons; type: cell-based, mouse; conditions: for effect on resveratrol-induced AMPK phosphorylation: DRG neurons, resveratrol 10 μM, 2 h
Description: (A) Embryonic DRG neurons from Lkb1 flox/flox mice were infected with lentivirus expressing Cre recombinase (FCIV-Cre) or GFP only (FUGW control). Lentiviral infection was monitored by GFP fluorescence (A). […] Lkb1 flox/flox DRG neurons were infected with FUGW or FCIV-Cre and treated as indicated. AMPK or ACC was immunoprecipitated from neuronal lysates and western blots were probed with the respective phospho-specific antibodies. […] No inhibition of AMPK or ACC phosphorylation was observed by treatment with SIRT1 or CaMKKβ inhibitors. Lysate from AICAR treated DRG neurons was included as a positive control. (E, F) Embryonic DRG neurons were cultured from wild type and SIRT1-deficient littermates derived from SIRT1 heterozygous matings. […] Levels of total AMPK and ACC are shown in the bottom panels of C, D, E and F. Densitometric analysis of changes in levels of phospho AMPK (G) and phospho ACC (H) in SIRT1+/+ and SIRT1−/− DRG neurons in presence and absence of resveratrol is shown. Note: Resv, resveratrol.
(§1) Cell culture and Reagents. Neuro2 cells obtained from ATCC were grown in MEM with 1.5 g/L sodium bicarbonate, 0.1 mM nonessential amino acids, 0.1 mM sodium pyruvate, 2 mM L-glutamine with 10% FCS. For differentiation, cells were switched to serum-starvation medium (containing 0.2% FCS). For neurite outgrowth measurements, experiments were done in quadruplicate and 100 neurites per well were randomly measured using the Metamorph software. Dorsal root ganglia sensory and cortical neurons were established from E13.5 mouse embryos, maintained in neurobasal medium supplemented with B27 (and NGF for DRG neurons) and infected with lentiviruses as described (Araki et al., 2004, Science 305:1010-1013; Hawley et al., 2005, Cell Metab 2:21-23). Resveratrol was a gift from Sirtris Pharmaceuticals (Cambridge Mass.) and AICAR was obtained from Toronto Research (North York, Canada). Splitomycin and Compound C were purchased from Biomol (Plymouth Meeting, Pa.) and Calbiochem (San Diego, Calif.). Sirtinol and nicotinamide were purchased from Sigma (Saint Louis, Mo.)
(§2) Plasmids and viruses. The dominant negative (dnAMPK) and constitutively active (caAMPK) plasmids were gifts from Russell Jones (University of Pennsylvania, Philadelphia Pa.), and pCXN-Cre was a gift of Inder Verma (Salk Institute, San Diego, Calif.). All constructs were subcloned into the lentiviral shuttle vector FCIV and verified by nucleotide sequence analysis. Viruses were prepared as previously described (Araki et al., 2004, Science 305:1010-1013). Protein and mRNA analysis. Immunoprecipitations and western blot analysis were performed by standard methods using antibodies directed against total AMPK, phosphorylated AMPK, total ACC or phosphorylated ACC that were obtained from Cell Signaling Technology (Beverley, Mass.). The phospho-AMPK antibody detects endogenous AMPK α1 and α2 when phosphorylated at threonine 172. The LKB1 antibody was purchased from Upstate (Lake Placid, N.Y.). Quantitative RT-PCR analysis was performed using Sybr-Green methodology on a model 7700 instrument (Applied Biosystems) as previously described (Araki et al., 2004, Science 305:1010-1013). Primer sequences were those used in previous studies (Motoshima, et al., 2006, J Physiol 574:63-71).
Resveratrol activation of AMPK in Neuro2a cells along with the crucial role of AMPK in promoting neurite outgrowth in these cells encouraged us to examine this pathway in primary neurons. […]

[2] = tested on: AMPK; test: AMPK and ACC phosphorylation in cortical neurons; type: cell-based, mouse; conditions: for effect on resveratrol-induced AMPK phosphorylation: cortical neurons, resveratrol 10 μM, 2 h
Description: FIG. 16A-F illustrates that resveratrol activates AMP kinase in cortical neurons through Lkb1 and CaMKKβ. (A) Cortical neuron cultures were established from E 13.5 Lkb1 flox/flox embryos and infected with lentivirus expressing Cre recombinase (FCIV-Cre) or GFP only (FUGW control). Lentiviral infection of cortical neurons was monitored by GFP fluorescence (A). […] Lkb1 flox/flox cortical neurons were infected with FUGW or FCIV-Cre and treated as indicated. AMPK or ACC was immunoprecipitated from neuronal lysates and western blots were probed with the respective phospho-specific antibodies. […] Lysates from AICAR treated cortical neurons is included as a positive control. (E, F) Embryonic cortical neurons were cultured from wild type and SIRT1-deficient littermates derived from SIRT1 heterozygous matings. […] Levels of total AMPK and ACC are shown in the bottom panels of C, D, E and F.
as §1, §2
Resveratrol activation of AMPK in Neuro2a cells along with the crucial role of AMPK in promoting neurite outgrowth in these cells encouraged us to examine this pathway in primary neurons. We treated E13.5 mouse dorsal root ganglia (DRG) sensory and cortical neuron cultures with resveratrol (10 μM) or AICAR (1 mM). […]

| SMILES | effect on resveratrol-induced AMPK phosphorylation [1] | effect on resveratrol-induced AMPK phosphorylation [2] | phosphorylation of AMPK and ACC ([1]; E13.5 DRG sensory neurons, 10 μM) | phosphorylation of AMPK and ACC ([2]; E13.5 cortical neurons, 10 μM) |
| --- | --- | --- | --- | --- |
| NC(=O)c1cccnc1 [Nam, nicotinamide] | none of the SIRT inhibitors | none of the SIRT inhibitors | – | – |
| O=C(O)c1ccc2c3c1cccc3c(=O)n1c3ccccc3nc21 [STO 609] | had no effect | did inhibit AMPK and ACC phosphorylation | – | – |
| CC(NC(=O)c1ccccc1/N=C/c1c(O)ccc2ccccc12)c1ccccc1 (stereo not shown) [Sirtinol] | none of the SIRT inhibitors | none of the SIRT inhibitors | – | – |
| Oc1ccc(C=Cc2cc(O)cc(O)c2)cc1 [resveratrol] | – | – | stimulated phosphorylation of AMPK and ACC | stimulated phosphorylation of AMPK and ACC |
| O=C1CCc2c(ccc3ccccc23)O1 [splitomycin] | none of the SIRT inhibitors | none of the SIRT inhibitors | – | – |
